In experiment [1] the test system is human tau P301S transgenic mice. The experiment in a line: Evaluation in human tau P301S transgenic mouse: ChAT positive cells in the medial septal area. Type of experiment: in vivo. Particulars: mean±SEM. From the text:
Evaluation in Human Tau P301S Transgenic Mouse
(§1) (1) Compound Administration
In this study, the test compounds were orally administered to human tau P301S transgenic mice once a day for three months from four-month-old to seven-month-old. The vehicle used was 0.01 mol/L hydrochloric acid.
At the initial day of the administration (four-month-old) and at the next day of the final administration, mice of vehicle administration group and test compound administration group were anesthetized under pentobarbital (50 mg/kg, i.p.) and perfused with PBS. After the perfusion, the forebrain including the medial septal area was collected and fixed with 4% paraformaldehyde.
(3) Preparation of Brain Coronal Frozen Section
The collected forebrain including the medial septal area was immersed and shaken overnight in 4% paraformaldehyde. […]
The prepared brain coronal frozen sections were stained with DAB (DAB PEROXIDASE SUBSTRATE KIT (Vector, SK-4100)) using a ChAT antibody (Santa Cruz, S.C.-20672) as a primary antibody. The section image including the medial septal area as shown in “The mouse Brain in stereotaxic coordinates” (COMPACT THIRD EDITION, Keith B.J. Franklin & George Paxinos) was taken by an all-in-one fluorescence microscope (KEYENCE, BZ-X710) and ChAT positive cells around the major axis of the medial septal area were counted by BZ analysis software (KEYENCE). […] Data are expressed as the mean±SEM. […]

The subject of experiment [2] is Choline Acetyltransferase (ChAT) mRNA. The experiment in a line: Measurement of choline acetyltransferase (ChAT) mRNA expression levels in the rat septal area. Type of experiment: in vivo. Particulars: SD rat medial septum, oral 10 mg/kg, 24 hours after administration, qPCR. As for the experimental part: Measurement of Choline Acetyltransferase (ChAT) mRNA Expression Levels in the Rat Septal Area
as §1
In this study, SD male rats (Charles River Laboratories Japan, Inc.) with a body weight of about 250 to 350 g were used. The compound was dissolved in 0.01 mol/L hydrochloric acid, and orally administered.
At 24 hours after the administration of the compound, the whole brain tissue was collected under pentobarbital anesthesia. The medial septum was isolated from whole brain on ice and frozen with liquid nitrogen, and then stored at −80° C.
(3) Measurement of ChAT mRNA Expression Levels
For RNA purification, RNeasy Plus Mini Kit (#74136: QIAGEN) was used in this study. RNA purification was performed by the method described in the kit. After RNA purification, the total RNA concentration was measured by using QIAxpert Instrument (QIAGEN). cDNA was synthesized using SuperScript® VILO™ cDNA Synthesis Kit (#11754: Thermo Fisher Scientific). The synthesis of cDNA was performed by the method described in the kit. The synthesized cDNA was diluted 4 times with RNase free water, and the diluted cDNA solution was used as a sample. Taqman Universal PCR Master Mix (#4304437: Thermo Fisher Scientific), Taqman® Gene Expression Assays, INVENTORIED (#4331182: Thermo Fisher Scientific), RNase free water, and the cDNA solution were mixed in amounts of 10 μl, 1 μl, 4 μl, and 5 μl, respectively, and the resulting mixture was used as a measurement sample solution. Quantitative polymerase chain reaction (qPCR) was conducted using ABI PRISM® 7900HT (Thermo Fisher Scientific) by a fluorescence probe method. Analysis was performed by SDS 2.4 (Thermo Fisher Scientific). The results were calculated by the percentage of the amount of ChAT mRNA expression levels in the compound administration group increased from the amount of ChAT mRNA expression levels in the vehicle administration group.
In general terms: Real-time PCR tracks product formation cycle by cycle.

The values that follow come from patent US10239889B1, “Pentacyclic compound” (Eisai R&D Management Co., Ltd., priority 2017, dated 2019).

As to `CN1CCc2c(sc3nc4n(c(=O)c23)-c2sccc2C(=O)N(C)C4)C1` [Example 3, 5,10-dimethyl-5,6,9,10,11,12-hexahydropyrido[4″,3″:4′,5′]thieno[2′,3′:4,5]pyrimido[1,2-a]thieno[3,2-f][1,4]diazepine-4,13-dione], the “Ratio (%) of number of ChAT positive cells compared to that in the initial administration” value in experiment [1] (oral 5 mg/kg once a day for three months (4 to 7 months old)) was 105.3 ± 4.3^# %. Besides, in experiment [2], the “Amount (%) increased from the amount of ChAT mRNA expression levels in the vehicle administration group” value came to 56.4%.

Take `CN1CCc2c(sc3nc4n(c(=O)c23)-c2ccc(F)cc2C(=O)N(C)C4)C1` [Example 1]: the “Ratio (%) of number of ChAT positive cells compared to that in the initial administration” value in experiment [1] (oral 10 mg/kg once a day for three months (4 to 7 months old)) was 105.0 ± 4.0^# %. Besides, the “Amount (%) increased from the amount of ChAT mRNA expression levels in the vehicle administration group” value in experiment [2] amounted to 73.3%.
